Laboratory results as given in ChEMBL document CHEMBL4831486, “Design, synthesis and biological evaluation of pleuromutilin-Schiff base hybrids as potent anti-MRSA agents in vitro and in vivo” (Eur J Med Chem, 2021).
≈ marks a conversion by molar mass, not a printed value.

How the values were obtained:
Staphylococcus aureus [1] = assay: Antibacterial activity against methicillin-resistant Staphylococcus aureus ATCC 43300 assessed as post antibiotic effect by measuring time required for increase in 1 log10 CFU/ml of bacteria at 2X MIC incubated for 2 hrs followed by compound washout and measured after 20 hrs by time-kill assay (reference value: 2.51 hrs); format: functional
Staphylococcus aureus [2] = assay: Bactericidal activity against Staphylococcus aureus 144 assessed as inhibition of bacterial growth measured after 96 hrs by broth dilution method; format: functional
Staphylococcus aureus [3] = assay: Bactericidal activity against methicillin-resistant Staphylococcus aureus ATCC 43300 assessed as reduction in bacterial growth at 4X MIC measured for 24 hrs by time kill assay; format: functional; set-up: scale not given: the % may be the effect or the level left
Escherichia coli [4] = assay: Bactericidal activity against Escherichia coli ATCC 25922 assessed as inhibition of bacterial growth measured after 96 hrs by broth dilution method; format: functional
Staphylococcus aureus [5] = assay: Bactericidal activity against Methycillin-resistant Staphylococcus aureus ATCC 43300 assessed as inhibition of bacterial growth measured after 96 hrs by broth dilution method; format: functional
Staphylococcus aureus [6] = assay: Bactericidal activity against Staphylococcus aureus AD3 assessed as inhibition of bacterial growth measured after 96 hrs by broth dilution method; format: functional
HepG2 = assay: Cytotoxicity against human HepG2 cells assessed as reduced cell viability at 4 ug/ml measured after 16 hrs by MTT assay; format: cell-based; conditions: hepg2, 16 h, dose 4 µg/ml
Escherichia coli [7] = assay: Antibacterial activity against Escherichia coli ATCC 25922 assessed as inhibition of bacterial growth measured after 24 hrs by broth dilution method; format: functional
Staphylococcus aureus [8] = assay: Antibacterial activity against Methycillin-resistant Staphylococcus aureus ATCC 43300 assessed as inhibition of bacterial growth measured after 24 hrs by broth dilution method; format: functional
Staphylococcus aureus [9] = assay: Antibacterial activity against Staphylococcus aureus 144 assessed as inhibition of bacterial growth measured after 24 hrs by broth dilution method; format: functional
Staphylococcus aureus [10] = assay: Antibacterial activity against methicillin-resistant Staphylococcus aureus ATCC 43300 assessed as post antibiotic effect by measuring time required for increase in 1 log10 CFU/ml of bacteria at 4X MIC incubated for 2 hrs followed by compound washout and measured after 20 hrs by time-kill assay (reference value: 2.51 hrs); format: functional
Staphylococcus aureus [11] = assay: Antibacterial activity against Staphylococcus aureus AD3 assessed as inhibition of bacterial growth measured after 24 hrs by broth dilution method; format: functional
Staphylococcus aureus [12] = assay: Bactericidal activity against Staphylococcus aureus ATCC 29213 assessed as inhibition of bacterial growth measured after 96 hrs by broth dilution method; format: functional
Staphylococcus aureus [13] = assay: Antibacterial activity against Staphylococcus aureus ATCC 29213 assessed as inhibition of bacterial growth measured after 24 hrs by broth dilution method; format: functional
RAW264.7 [14] = assay: Cytotoxicity against mouse RAW264.7 cells assessed as reduced cell viability at 4 ug/ml measured after 16 hrs by MTT assay; format: cell-based; conditions: raw264.7, 16 h, dose 4 µg/ml
RAW264.7 [15] = assay: Cytotoxicity against mouse RAW264.7 cells assessed as reduced cell viability at 4 ug/ml measured after 16 hrs by MTT assay relative to control; format: cell-based; conditions: raw264.7, 16 h, at 4 µg/mL
Staphylococcus aureus [16] = assay: Antibacterial activity against methicillin-resistant Staphylococcus aureus ATCC 43300 infected in neutropenic CD1 mouse model of thigh infection assessed as reduction in bacterial colony forming unit in thigh at 20 mg/kg, iv qd measured after 24 hrs relative to control; format: functional
Staphylococcus aureus [17] = assay: Antibacterial activity against methicillin-resistant Staphylococcus aureus ATCC 43300 assessed as post antibiotic effect by measuring time required for increase in 1 log10 CFU/ml of bacteria at 2X MIC incubated for 2 hrs followed by compound washout and measured after 20 hrs by time-kill assay (reference value: 2.04 hrs); format: functional
Staphylococcus aureus [18] = assay: Antibacterial activity against methicillin-resistant Staphylococcus aureus ATCC 43300 assessed as post antibiotic effect by measuring time required for increase in 1 log10 CFU/ml of bacteria at 4X MIC incubated for 2 hrs followed by compound washout and measured after 20 hrs by time-kill assay (reference value: 2.04 hrs); format: functional
Staphylococcus aureus [19] = assay: Antibacterial activity against methicillin-resistant Staphylococcus aureus ATCC 43300 assessed as inhibition of bacterial growth measured after 8 passages at sub-MIC concentration incubated for 24 hrs by resistant development assay; format: functional
Staphylococcus aureus [20] = assay: Bactericidal activity against methicillin-resistant Staphylococcus aureus ATCC 43300 assessed as reduction in bacterial growth at 2X MIC measured for 24 hrs by time kill assay; format: functional; set-up: scale not given: the % may be the effect or the level left
Staphylococcus aureus [21] = assay: Antibacterial activity against methicillin-resistant Staphylococcus aureus ATCC 43300 assessed as post antibiotic effect by measuring time required for increase in 1 log10 CFU/ml of bacteria at 2X MIC incubated for 2 hrs followed by compound washout and measured after 20 hrs by time-kill assay (reference value: 2.44 hrs); format: functional
Staphylococcus aureus [22] = assay: Antibacterial activity against methicillin-resistant Staphylococcus aureus ATCC 43300 assessed as post antibiotic effect by measuring time required for increase in 1 log10 CFU/ml of bacteria at 4X MIC incubated for 2 hrs followed by compound washout and measured after 20 hrs by time-kill assay (reference value: 2.44 hrs); format: functional

| SMILES | MBC (Staphylococcus aureus [2]) | MBC (Escherichia coli [4]) | MBC (Staphylococcus aureus [5]) | MBC (Staphylococcus aureus [6]) | Activity (HepG2) | MIC (Escherichia coli [7]) | MIC (Staphylococcus aureus [8]) | MIC (Staphylococcus aureus [9]) | MIC (Staphylococcus aureus [11]) | MBC (Staphylococcus aureus [12]) | MIC (Staphylococcus aureus [13]) | Activity (RAW264.7 [14]) | other results |
| --- | --- | --- | --- | --- | --- | --- | --- | --- | --- | --- | --- | --- | --- |
| C=C[C@]1(C)C[C@@H](OC(=O)CSc2nnc(C)n2/N=C/c2ccc(O)cc2)[C@]2(C)[C@H](C)CC[C@]3(CCC(=O)[C@H]32)[C@@H](C)[C@@H]1O | 2 µg/mL (≈ 3.36 µM) | > 64 µg/mL | 1 µg/mL (≈ 1.68 µM) | 2 µg/mL (≈ 3.36 µM) | Non-Toxic | > 64 µg/mL | 0.25 µg/mL (≈ 0.42 µM) | 1 µg/mL (≈ 1.68 µM) | 0.5 µg/mL (≈ 0.841 µM) | 2 µg/mL (≈ 3.36 µM) | 0.5 µg/mL (≈ 0.841 µM) | Non-Toxic | Time (Staphylococcus aureus [1]): 2.55 h; Activity (Staphylococcus aureus [3]): 99.9%; Time (Staphylococcus aureus [10]): 3.22 h |
| C=C[C@]1(C)C[C@@H](OC(=O)CSc2nnc(C)n2/N=C/c2ccc(C)cc2)[C@]2(C)[C@H](C)CC[C@]3(CCC(=O)[C@H]32)[C@@H](C)[C@@H]1O | 4 µg/mL (≈ 6.75 µM) | > 64 µg/mL | 1 µg/mL (≈ 1.69 µM) | 4 µg/mL (≈ 6.75 µM) | Non-Toxic | > 64 µg/mL | 0.5 µg/mL (≈ 0.843 µM) | 2 µg/mL (≈ 3.37 µM) | 1 µg/mL (≈ 1.69 µM) | 2 µg/mL (≈ 3.37 µM) | 1 µg/mL (≈ 1.69 µM) | – | Activity (RAW264.7 [15]): 30% |
| C=C[C@]1(C)C[C@@H](OC(=O)CSc2nnc(C)n2/N=C/c2ccc(-c3ccccn3)cc2)[C@]2(C)[C@H](C)CC[C@]3(CCC(=O)[C@H]32)[C@@H](C)[C@@H]1O | 4 µg/mL (≈ 6.1 µM) | > 64 µg/mL | 1 µg/mL (≈ 1.52 µM) | 2 µg/mL (≈ 3.05 µM) | Non-Toxic | > 64 µg/mL | 0.25 µg/mL (≈ 0.381 µM) | 1 µg/mL (≈ 1.52 µM) | 0.5 µg/mL (≈ 0.762 µM) | 1 µg/mL (≈ 1.52 µM) | 0.5 µg/mL (≈ 0.762 µM) | Non-Toxic | Activity (Staphylococcus aureus [16]): -2.28 log10CFU/ml; Time (Staphylococcus aureus [17]): 4.06 h; Time (Staphylococcus aureus [18]): 4.27 h; MIC (Staphylococcus aureus [19]): 2 µg/mL (≈ 3.05 µM); Activity (Staphylococcus aureus [20]): 99.9% |
| C=C[C@]1(C)C[C@@H](OC(=O)CSCCN(CC)CC)[C@]2(C)[C@H](C)CC[C@]3(CCC(=O)[C@H]32)[C@@H](C)[C@@H]1O [TIAMULIN] | 2 µg/mL (≈ 4.05 µM) | > 64 µg/mL | 1 µg/mL (≈ 2.03 µM) | 2 µg/mL (≈ 4.05 µM) | – | > 64 µg/mL | 0.5 µg/mL (≈ 1.01 µM) | 1 µg/mL (≈ 2.03 µM) | 1 µg/mL (≈ 2.03 µM) | 1 µg/mL (≈ 2.03 µM) | 1 µg/mL (≈ 2.03 µM) | – | Activity (Staphylococcus aureus [16]): -1.4 log10CFU/ml; Time (Staphylococcus aureus [21]): 1.72 h; Time (Staphylococcus aureus [22]): 2.14 h; MIC (Staphylococcus aureus [19]): 32 µg/mL (≈ 64.8 µM) |
| C=C[C@]1(C)C[C@@H](OC(=O)CSc2nnc(C)n2/N=C/c2cccc(C(F)(F)F)c2)[C@]2(C)[C@H](C)CC[C@]3(CCC(=O)[C@H]32)[C@@H](C)[C@@H]1O | 4 µg/mL (≈ 6.18 µM) | > 64 µg/mL | 4 µg/mL (≈ 6.18 µM) | 4 µg/mL (≈ 6.18 µM) | Non-Toxic | > 64 µg/mL | 2 µg/mL (≈ 3.09 µM) | 4 µg/mL (≈ 6.18 µM) | 2 µg/mL (≈ 3.09 µM) | 4 µg/mL (≈ 6.18 µM) | 2 µg/mL (≈ 3.09 µM) | Non-Toxic | – |
| C=C[C@]1(C)C[C@@H](OC(=O)CSc2nnc(C)n2/N=C/c2ccccc2F)[C@]2(C)[C@H](C)CC[C@]3(CCC(=O)[C@H]32)[C@@H](C)[C@@H]1O | 4 µg/mL (≈ 6.7 µM) | > 64 µg/mL | 1 µg/mL (≈ 1.68 µM) | 4 µg/mL (≈ 6.7 µM) | Non-Toxic | > 64 µg/mL | 0.5 µg/mL (≈ 0.838 µM) | 2 µg/mL (≈ 3.35 µM) | 1 µg/mL (≈ 1.68 µM) | 2 µg/mL (≈ 3.35 µM) | 1 µg/mL (≈ 1.68 µM) | Non-Toxic | – |
| C=C[C@]1(C)C[C@@H](OC(=O)CSc2nnc(C)n2/N=C/c2ccc(N(C)C)cc2)[C@]2(C)[C@H](C)CC[C@]3(CCC(=O)[C@H]32)[C@@H](C)[C@@H]1O | 4 µg/mL (≈ 6.43 µM) | > 64 µg/mL | 1 µg/mL (≈ 1.61 µM) | 4 µg/mL (≈ 6.43 µM) | Non-Toxic | > 64 µg/mL | 0.5 µg/mL (≈ 0.804 µM) | 2 µg/mL (≈ 3.22 µM) | 1 µg/mL (≈ 1.61 µM) | 2 µg/mL (≈ 3.22 µM) | 0.5 µg/mL (≈ 0.804 µM) | Non-Toxic | – |
